{"source": "ChEMBL document CHEMBL1201862", "about": "“PubChem BioAssay data set” (2004)", "key": {"[1]": {"biological_target": "T1, Small ubiquitin-related modifier 1 (Homo sapiens, UniProt P63165)", "T1 sequence (P63165 whole entry)": "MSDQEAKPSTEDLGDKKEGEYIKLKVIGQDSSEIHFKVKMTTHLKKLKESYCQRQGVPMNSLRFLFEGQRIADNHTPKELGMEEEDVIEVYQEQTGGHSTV", "test": "SUMO1 protein-protein binding blockers, potency – biochemical, FRET, dose response (AID 624383)", "assay_type": "functional", "conditions": "read-out: IC50_Mean"}, "[2]": {"biological_target": "T1, Small ubiquitin-related modifier 1", "test": "SUMO1 protein interaction blockers, potency – biochemical, fluorescence polarization, uHTS hits, dose response (AID 624382)", "assay_type": "functional", "conditions": "read-out: IC50_Mean"}, "[3]": {"test": "non-specific 3'UTR reporter inhibition in Clone20-Shn3RL – cell-based, Renilla luciferase, cherry-picked, counter-screen for Shn3 inhibitor project, dose response (AID 624133)", "assay_type": "functional"}, "[4]": {"test": "toxicity toward HepG2 liver cells – cell-based, plate reader, cherry-pick, antagonist series, cytotoxicity control, dose response (AID 743416)", "assay_type": "functional"}, "[5]": {"test": "reduction of Shn3 3'UTR-driven luciferase in osteoblasts – cell-based, Clone20 osteoblasts, firefly luciferase, cherry-picked, dose response (AID 624132);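 further: firefly luciferase luminescence from reporter carrying the Shn3 3'UTR in osteoblasts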", "assay_type": "functional"}, "[6]": {"test": "loss of viability in HepG2 cells – cell-based, CellTiter-Glo, cherry-picked, cytotoxicity control for Shn3 inhibitor project, dose response (AID 624134)", "assay_type": "functional"}, "[7]": {"test": "blockers of bursicon-stimulated LGR2 cAMP reporter – cell-based, HEK293, CRE-luciferase reporter, cherry pick, set 2, dose response (AID 743343);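 further: transfected cells were stimulated with diluted bursicon conditioned medium after compound addition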", "assay_type": "functional"}, "[8]": {"test": "viability loss in HEK293 cells – cell-based, plate reader, cherry-picked samples, cytotoxicity control, dose response (AID 743446)", "assay_type": "functional"}, "[9]": {"test": "A549 cell cytotoxicity, dose response, cytotoxicity control, plate reader, cherry-pick, antagonist series (AID 743412)", "assay_type": "functional, cell-based"}, "[10]": {"test": "blockade of melanocortin 4 receptor signaling – cell-based, plate reader, cherry pick, counter-screen for LGR2 antagonist project, dose response (AID 743444);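 further: transfected HEK 293 cells stimulated with alpha-MSH peptide; potency of inhibitors of the alpha-MSH evoked signal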", "assay_type": "functional"}, "Paired box protein Pax-8": {"biological_target": "Paired box protein Pax-8 (Homo sapiens, UniProt Q06710)", "sequence (Q06710 whole entry)": "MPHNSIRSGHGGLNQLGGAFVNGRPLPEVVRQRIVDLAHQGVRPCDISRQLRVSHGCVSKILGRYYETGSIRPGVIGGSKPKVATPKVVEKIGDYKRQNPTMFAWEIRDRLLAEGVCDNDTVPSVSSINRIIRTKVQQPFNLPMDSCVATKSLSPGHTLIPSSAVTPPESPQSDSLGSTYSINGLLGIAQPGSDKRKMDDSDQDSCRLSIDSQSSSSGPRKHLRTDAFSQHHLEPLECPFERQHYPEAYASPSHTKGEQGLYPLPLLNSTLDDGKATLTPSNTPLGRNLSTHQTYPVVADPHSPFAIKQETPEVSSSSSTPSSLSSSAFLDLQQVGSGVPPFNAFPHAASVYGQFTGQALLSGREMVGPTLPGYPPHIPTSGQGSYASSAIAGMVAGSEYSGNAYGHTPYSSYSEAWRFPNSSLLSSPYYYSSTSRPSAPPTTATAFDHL", "test": "PAX8 transcriptional activity inhibition in RMG-I – RMG-I cells, luciferase, cherry-pick, dose response (AID 687027);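 further: luciferase reporter driven by Pax8 target thyroperoxidase promoter measured by SteadyGlo luminescence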", "assay_type": "functional, cell-based"}, "[11]": {"test": "IGROV1 cell killing – plate reader, dry powder samples, PAX8 inhibitor project, dose response (AID 743043)", "assay_type": "functional, cell-based", "conditions": "IGROV-1"}, "[12]": {"test": "OVCAR8 cell viability loss – plate reader, dry powder samples, PAX8 project, dose response (AID 743197)", "assay_type": "functional, cell-based", "conditions": "OVCAR-8"}, "[13]": {"test": "OVCAR-3 cell viability loss – plate reader, dry powder samples, PAX8 inhibitor project, dose response (AID 743044)", "assay_type": "functional, cell-based"}, "[14]": {"biological_target": "T2, Bifunctional protein GlmU (Mycobacterium tuberculosis, UniProt P9WMN3)", "T2 sequence (P9WMN3 whole entry)": "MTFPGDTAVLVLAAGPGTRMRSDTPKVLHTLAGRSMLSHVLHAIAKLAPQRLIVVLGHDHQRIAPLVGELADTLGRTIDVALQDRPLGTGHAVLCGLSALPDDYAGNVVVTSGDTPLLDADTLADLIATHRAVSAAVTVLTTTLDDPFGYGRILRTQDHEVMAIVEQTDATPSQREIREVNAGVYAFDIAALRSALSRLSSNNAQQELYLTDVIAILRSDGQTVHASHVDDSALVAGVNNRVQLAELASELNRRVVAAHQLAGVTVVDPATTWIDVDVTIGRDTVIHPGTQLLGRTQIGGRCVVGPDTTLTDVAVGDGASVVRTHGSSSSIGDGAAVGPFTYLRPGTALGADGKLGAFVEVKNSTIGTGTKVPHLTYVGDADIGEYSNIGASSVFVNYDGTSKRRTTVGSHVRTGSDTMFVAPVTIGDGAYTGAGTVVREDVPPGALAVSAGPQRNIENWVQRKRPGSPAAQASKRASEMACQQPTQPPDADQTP", "test": "Inhibitors of Mycobacterial Glucosamine-1-phosphate acetyl transferase (GlmU). Secondary screen.", "set-up": "species or system Mycobacterium tuberculosis H37Rv"}, "[15]": {"test": "glucagon-like peptide-1 release potency in STC-1, concentration-response, half-maximal inhibitory concentration in the STC-1 line (AID 1117345)", "assay_type": "functional, cell-based"}, "[16]": {"test": "IC50 of insulin release inhibition, rat insulinoma INS-1E line, 5 mM glucose, cell-based (AID 1117331)", "assay_type": "functional"}, "[17]": {"test": "Potency on glucagon-like peptide 1 release, dose-response in NCI-H716 cell line, half maximal inhibitory concentration (AID 1117344)", "assay_type": "functional, cell-based"}, "Cytochrome P450 2C9": {"biological_target": "Cytochrome P450 2C9 (Homo sapiens, UniProt P11712)", "sequence (P11712 whole entry)": "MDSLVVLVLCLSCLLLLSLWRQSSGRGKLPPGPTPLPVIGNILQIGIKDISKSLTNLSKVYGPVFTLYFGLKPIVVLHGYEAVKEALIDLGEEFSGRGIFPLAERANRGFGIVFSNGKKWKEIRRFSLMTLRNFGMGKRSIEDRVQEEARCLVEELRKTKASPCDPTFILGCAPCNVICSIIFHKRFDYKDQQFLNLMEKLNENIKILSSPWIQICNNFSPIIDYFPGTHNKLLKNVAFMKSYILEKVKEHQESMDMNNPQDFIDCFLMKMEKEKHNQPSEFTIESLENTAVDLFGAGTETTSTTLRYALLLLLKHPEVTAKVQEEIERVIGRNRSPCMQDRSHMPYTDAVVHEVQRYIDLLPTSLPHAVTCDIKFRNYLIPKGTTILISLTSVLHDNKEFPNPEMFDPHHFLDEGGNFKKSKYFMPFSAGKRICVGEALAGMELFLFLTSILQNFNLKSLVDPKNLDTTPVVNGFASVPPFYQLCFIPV"}}, "note": "Activity calls are given as the source filed them.", "data": [{"smiles": "O=C(O)C1=CCC=CC1C(=O)O", "note": "(stereo unspecified)", "values": [{"measurement": "IC50", "setting": "[1]", "result": "5.69 µM (active)"}, {"measurement": "IC50", "setting": "[2]", "result": "> 66.6 µM (inactive)"}]}, {"smiles": "CCCCNc1c(-c2cccc(-c3ccc(OC)cc3)c2)nc2cc(C)ccn12", "values": [{"measurement": "AC50", "setting": "[3]", "result": "10.6 µM (active)"}, {"measurement": "AC50", "setting": "[4]", "result": "21.9 µM (active)"}, {"measurement": "AC50", "setting": "[5]", "result": "12.1 µM (active)"}, {"measurement": "AC50", "setting": "[6]", "result": "38.9 µM (active)"}, {"measurement": "AC50", "setting": "[7]", "result": "8.28 µM (active)"}, {"measurement": "AC50", "setting": "[8]", "result": "14.5 µM (active)"}, {"measurement": "AC50", "setting": "[9]", "result": "17.7 µM (active)"}, {"measurement": "AC50", "setting": "[10]", "result": "10.9 µM (active)"}]}, {"smiles": "Cc1ccc(S(=O)(=O)N2CC[C@@H]3[C@H](CO)N(C)c4ccc(-c5ccc(C#N)cc5)cc4[C@@H]32)cc1", "values": [{"measurement": "AC50", "setting": "Paired box protein Pax-8", "result": "7.55 µM (active)"}, {"measurement": "AC50", "setting": "[11]", "result": "28.6 µM (active)"}, {"measurement": "AC50", "setting": "[12]", "result": "48.4 µM (active)"}]}, {"smiles": "C[C@@H]1CCCCO[C@@H](CN(C)Cc2ccc(C(F)(F)F)cc2)[C@@H](C)CN([C@@H](C)CO)C(=O)c2cc(NS(=O)(=O)c3ccc(Cl)cc3)ccc2O1", "values": [{"measurement": "AC50", "setting": "Paired box protein Pax-8", "result": "7.31 µM (active)"}, {"measurement": "AC50", "setting": "[11]", "result": "53.5 µM (active)"}, {"measurement": "AC50", "setting": "[12]", "result": "43.7 µM (active)"}, {"measurement": "AC50", "setting": "[13]", "result": "27.4 µM (active)"}]}, {"smiles": "N#C/C(=C\\c1ccc(-c2ccc(C(=O)O)cc2)o1)c1nc2ccccc2[nH]1", "values": [{"measurement": "IC50", "setting": "[14]", "result": "51.3 µM (active)"}]}, {"smiles": "Fc1cc(Br)ccc1CBr", "values": [{"measurement": "IC50", "setting": "[15]", "result": "> 40 µM (inactive)"}, {"measurement": "IC50", "setting": "[16]", "result": "> 33.3 µM (inactive)"}, {"measurement": "IC50", "setting": "[17]", "result": "> 40 µM (inactive)"}]}, {"smiles": "COc1ccc2c(c1)C(=O)N(CCc1ccc(S(=O)(=O)NC(=O)NC3CCCCC3)cc1)C(=O)C2(C)C", "note": "[GLIQUIDONE]", "values": [{"measurement": "IC50", "setting": "[16]", "result": "0.23 µM (active)"}, {"measurement": "AC50", "setting": "Cytochrome P450 2C9", "result": "12.6 µM (inconclusive)"}]}, {"smiles": "FC(F)(F)C(F)(F)C(F)(F)C(F)(F)C(F)(F)C(F)(F)C(F)(F)C(F)(F)Br", "note": "[PERFLUBRON]", "values": [{"measurement": "IC50", "setting": "[15]", "result": "> 40 µM (inactive)"}, {"measurement": "IC50", "setting": "[16]", "result": "> 33.3 µM (inactive)"}, {"measurement": "IC50", "setting": "[17]", "result": "> 40 µM (inactive)"}]}]}
